Measured values as given in patent publication US8222218B2, “Cyclopropanated carbohydrates” (Seton Hall University, priority 2008, dated 2012).

How the values were obtained:
seizures = experiment: In vivo anticonvulsant screening (MES, scMET, minimal clonic seizure), summary in words; parameters: species or system rat, mouse; conditions: summary of Table 2
Procedure: (§1) Toxicity was measured using the minimal motor impairment test described below.
The MES test is a model for generalized tonic-clonic seizures. The seizures are highly reproducible and electrophysiologically consistent with human seizures. The test provides information about a compound's ability to prevent the spread of seizure when all neuronal circuits of the brain are maximally active. 60 Hz of alternating current (50 mA in mice, 150 mA in rats) is applied for 2 seconds via corneal electrodes that have been treated with an electrolyte solution containing an anesthetic (0.5% tetracaine HCl). Mice are tested at a variety of intervals after an i.p. injection of […] solution of the test compound (commonly in a 0.5% solution of methylcellulose) at 30, 100, and 300 mg/kg doses. Rats are examined after a 30 mg/kg (per os, p.o.) dose that is applied in a volume of 0.04 mL/g. An animal is considered “protected” from MES-induced seizures upon removal of the hind limb extensor component of the seizure.
The subcutaneous injection of metrazole, which is a convulsant, produces clonic seizures in laboratory animals. The scMET test is designed to identify compounds that raise the seizure threshold of an animal. Mice are pretreated with test compound at 30, 100, and 300 mg/kg doses in a similar manner to the MES test. Rats are treated with a 50 mg/kg dose (p.o.). At the previously determined TPE of the test compound, the dose of metrazole that will induce convulsions in 97% of animals (CD97: 85 mg/kg mice) is injected into the loose fold of the skin in the midline of the neck. The animals are placed in isolation cages to minimize stress and observed for the next 30 minutes for the presence or absence of seizures. An episode of clonic spasms (approximately 3-5 seconds) of the fore and/or hindlimbs, jaws or vibrissae is taken as the endpoint.
The minimal clonic seizure (6 Hz) test, like the MES test, is used to assess a compound's ability to protect against electrically-induced seizures. The minimal clonic (6 Hz) seizure test uses a lower frequency (6 Hz) and a longer duration of stimulation (3 seconds) than the MES test. Test compounds are pre-administered to mice via i.p. injection. At varying times, individual mice (four per time point) are challenged with sufficient current via corneal electrodes to elicit a psychomotor seizure in 97% of animals (32 mA for 3 second). Untreated mice will display seizure characterized by a minimal clonic phase followed by stereotyped, automatistic behaviors described originally as being similar to the aura of human patients with partial seizures. Animals not displaying this behavior are considered to be protected.

[1] = Acute toxicity, minimal motor impairment (ataxia), rats; assay type: in vivo; conditions: rat, 30 mg/kg
Procedure: as §1
Animals are monitored for overt signs of impaired neurological or muscular function to assess a compound's toxicity. In mice, the rotorod procedure is used to disclose minimal muscular or neurological impairment. When a mouse is placed on a rotating rod (6 rpm), the animal can maintain its equilibrium for long periods of time. The animal is considered toxic if it falls off the rotating rod three times during a 1 minute period. In rats, minimal motor deficit is indicated by ataxia, which is manifested by an abnormal, uncoordinated gait. Rats used for toxicity evaluation are examined before the test drug is given as individual animals may have peculiarities in gait, equilibrium, and pacing response which must be distinguished from potential effects of the test substance.
Male and female albino CF1 mice (18-25 g, Charles River, Portage, Mich.) and male albino Sprague-Dawley rats (275-300 g, kindling test; 100-150 g all other tests; Charles River, Raleigh, N.C.) were used as experimental animals.

With `CCOC(=O)C1[C@@H]2[C@@H](O)[C@@H]3O[C@H](c4ccc(OC)cc4)OC[C@H]3O[C@H]12` (stereo partly drawn) [Compound 16, ethyl (2R,4aR,5aS,6aR,7R,7aS)-7-hydroxy-2-(4-methoxyphenyl)hexahydro-4H-cyclopropa[5,6]pyrano[3,2-d][1,3]dioxine-6-carboxylate] the “anticonvulsant activity” value (seizures) was “anticonvulsant activity” and the “TOX 30 4 h (animals toxic/tested)” value [1] was 0/4.
